Experimental data as given in patent US20140323418A1, “SELECTIVE KINASE INHIBITORS” (PORTOLA PHARMACEUTICALS, INC., priority 2011, published 2014).

Biological target: T1, full length active recombinant SYK enzyme (Homo sapiens, UniProt P43405)
T1 construct: full length active recombinant SYK enzyme (Millipore, Calif.); purchased Millipore
Test: Inhibition of Syk tyrosine phosphorylation activity (LANCE TR-FRET kinase assay)
Format: biochemical
Conditions: 1 nM SYK, 550 nM substrate, 100 μM ATP, 1 hour room temperature

IC50 [nM]	Compound
10 to 100	Cn1ccc2c(Nc3nc(N[C@@H]4CCCC(F)(F)[C@@H]4N)ncc3C(N)=O)cccc21 [Example 91, 2-((1R,2R)-2-amino-3,3-difluorocyclohexylamino)-4-(1-methyl-1H-indol-4-ylamino)pyrimidine-5-carboxamide]
10 to 100	CCn1ccc2c(Nc3nc(N[C@@H]4CCCC(F)(F)[C@@H]4N)ncc3C(N)=O)cccc21 [Example 92, 2-((1R,2R)-2-amino-3,3-difluorocyclohexylamino)-4-(1-ethyl-1H-indol-4-ylamino)pyrimidine-5-carboxamide]
10 to 100	NC(=O)c1cnc(N[C@@H]2CCCC(F)(F)[C@@H]2N)nc1Nc1cccc2c1ccn2CC(F)(F)F [Example 93, 2-((1R,2R)-2-amino-3,3-difluorocyclohexylamino)-4-(1-(2,2,2-trifluoroethyl)-1H-indol-4-ylamino)pyrimidine-5-carboxamide]
1 to 10	Cn1ccc2c(Nc3nc(NC[C@@H](N)CC(F)F)ncc3C(N)=O)ccnc21 [Example 94, (S)-2-(2-amino-4,4-difluorobutylamino)-4-(1-methyl-1H-pyrrolo[2,3-b]pyridin-4-ylamino)pyrimidine-5-carboxamide]
100 to 1000	NC(=O)c1cnc(NC[C@@H](N)CC(F)F)nc1Nc1cccc(-c2ncccn2)c1 [Example 95, (S)-2-(2-amino-4,4-difluorobutylamino)-4-(3-(pyrimidin-2-yl)phenylamino)pyrimidine-5-carboxamide]
100 to 1000	CN1C(=O)Cc2c(Nc3nc(N[C@@H]4CCCC[C@@H]4N)ncc3C(N)=O)cccc21 [Example 96, 2-((1R,2S)-2-aminocyclohexylamino)-4-(1-methyl-2-oxoindolin-4-ylamino)pyrimidine-5-carboxamide]
10 to 100	NC(=O)c1cnc(NC[C@@H](N)CC(F)F)nc1Nc1cccc2c1CCN2CC(F)(F)F [Example 97]
10 to 100	CN1CCc2c(Nc3nc(NC[C@@H](N)CC(F)F)ncc3C(N)=O)cccc21 [Example 98, (S)-2-(2-amino-4,4-difluorobutylamino)-4-(1-methylindolin-4-ylamino)pyrimidine-5-carboxamide]
10 to 100	CCN1CCc2c(Nc3nc(N[C@@H](CN)C4CC4)ncc3C(N)=O)cccc21 [Example 99, (R)-2-(2-amino-1-cyclopropylethylamino)-4-(1-ethylindolin-4-ylamino)pyrimidine-5-carboxamide]
100 to 1000	CCc1c(C)c2c(Nc3nc(N[C@@H]4CCCC[C@@H]4N)ncc3C(N)=O)cccc2n1C [Example 100, 2-((1R,2S)-2-aminocyclohexylamino)-4-(2-ethyl-1,3-dimethyl-1H-indol-4-ylamino)pyrimidine-5-carboxamide]
100 to 1000	CCc1c(C)n(C)c2cccc(Nc3nc(N[C@@H]4CCCC[C@@H]4N)ncc3C(N)=O)c12 [Example 101, 2-((1R,2S)-2-aminocyclohexylamino)-4-(3-ethyl-1,2-dimethyl-1H-indol-4-ylamino)pyrimidine-5-carboxamide]
10 to 100	CCCc1cc2c(Nc3nc(N[C@@H]4CCCC[C@@H]4N)ncc3C(N)=O)cccc2n1C [Example 102, 2-((1R,2S)-2-aminocyclohexylamino)-4-(1-methyl-2-propyl-1H-indol-4-ylamino)pyrimidine-5-carboxamide]
100 to 1000	Cn1cc(C#N)c2c(Nc3nc(N[C@@H]4CCCC[C@@H]4N)ncc3C(N)=O)cccc21 [Example 103, 2-((1R,2S)-2-aminocyclohexylamino)-4-(3-cyano-1-methyl-1H-indol-4-ylamino)pyrimidine-5-carboxamide]
10 to 100	Cn1ccc2c(Nc3nc(NCC(N)C(C)(F)F)ncc3C(N)=O)cccc21 (stereo not shown) [Example 104, 2-(2-amino-3,3-difluorobutylamino)-4-(1-methyl-1H-indol-4-ylamino)pyrimidine-5-carboxamide]
100 to 1000	Cc1cccc(Nc2nc(NCC(N)C(C)(F)F)ncc2C(N)=O)c1 (stereo not shown) [Example 105, 4-(m-toluidino)-2-(2-amino-3,3-difluorobutylamino)pyrimidine-5-carboxamide]
10 to 100	NC(=O)c1cnc(NCC2(N)CC2)nc1Nc1cccc(-n2cccn2)c1 [Example 106, 4-(3-(1H-pyrazol-1-yl)phenylamino)-2-((1-aminocyclopropyl)methylamino)pyrimidine-5-carboxamide]
100 to 1000	Cn1ccc2c(Nc3nc(N[C@@H]4CCCC[C@@H]4O)ncc3C(N)=O)cccc21 [Example 107, 2-((1R,2S)-2-hydroxycyclohexylamino)-4-(1-methyl-1H-indol-4-ylamino)pyrimidine-5-carboxamide]
100 to 1000	Cn1ccc2c(Nc3nc(NC4CCCCC4)ncc3C(N)=O)cccc21 [Example 108, 2-(cyclohexylamino)-4-(1-methyl-1H-indol-4-ylamino)pyrimidine-5-carboxamide]
100 to 1000	Cn1ccc2c(Nc3nc(NC4(C#N)CC4)ncc3C(N)=O)cccc21 [Example 109, 2-(1-cyanocyclopropylamino)-4-(1-methyl-1H-indol-4-ylamino)pyrimidine-5-carboxamide]
100 to 1000	C[C@@H](Nc1ncc(C(N)=O)c(Nc2cccc3c2ccn3C)n1)C1CC1 [Example 110, (R)-2-(1-cyclopropylethylamino)-4-(1-methyl-1H-indol-4-ylamino)pyrimidine-5-carboxamide]
100 to 1000	Cn1ccc2c(Nc3nc(NCC4CCCC4)ncc3C(N)=O)cccc21 [Example 111, 2-(cyclopentylmethylamino)-4-(1-methyl-1H-indol-4-ylamino)pyrimidine-5-carboxamide]
100 to 1000	Cn1ccc2c(Nc3nc(NCC4CC4)ncc3C(N)=O)cccc21 [Example 112, 2-(cyclopropylmethylamino)-4-(1-methyl-1H-indol-4-ylamino)pyrimidine-5-carboxamide]
10 to 100	CCn1ccc2c(Nc3nc(Nc4ccc5c(c4)CC(=O)N5)ncc3C(N)=O)cccc21 [Example 113, 4-(1-ethyl-1H-indol-4-ylamino)-2-(2-oxoindolin-5-ylamino)pyrimidine-5-carboxamide]
100 to 1000	CCn1ccc2c(Nc3nc(NC4CC4)ncc3C(N)=O)cccc21 [Example 114, 2-(cyclopropylamino)-4-(1-ethyl-1H-indol-4-ylamino)pyrimidine-5-carboxamide]
100 to 1000	CCn1ccc2c(Nc3nc(NC(C)C)ncc3C(N)=O)cccc21 [Example 115, 4-(1-ethyl-1H-indol-4-ylamino)-2-(isopropylamino)pyrimidine-5-carboxamide]
100 to 1000	CCn1ccc2c(Nc3nc(NCC(C)C)ncc3C(N)=O)cccc21 [Example 116, 4-(1-ethyl-1H-indol-4-ylamino)-2-(isobutylamino)pyrimidine-5-carboxamide]
10 to 100	Cc1cccc(Nc2nc(NC3(CN)CC3)ncc2C(N)=O)c1 [Example 117, 4-(m-toluidino)-2-(1-(aminomethyl)cyclopropylamino)pyrimidine-5-carboxamide]
100 to 1000	Cc1cccc(Nc2nc(N[C@H]3CC[C@@H](N)C3)ncc2C(N)=O)c1 [Example 118, 4-(m-toluidino)-2-((1S,3R)-3-aminocyclopentylamino)pyrimidine-5-carboxamide]
